For orientation: pEC50 means −log10 of the EC50, conventionally taken in molar units. The melting point is the temperature of the solid-liquid transition.

For one data set, the target named is T1, HCV NS5B genotype 1b (Hepatitis C virus genotype 1b, UniProt Q9WMX2).
T1 construct: The protein was expressed with a 21 amino acid C-terminal deletion to remove transmembrane domain; expressed in transfected cells; host or cells: Huh-7
Nature of the data set: 3D-SCREEN assay (NS5B 3D-Screen platform, luciferase reporter gene). Format: cell-based. The following applies: EC50_3DS_NS5B. The source says: cDNA encoding HCV NS5B genotype 1b, was cloned in frame with Gal4-DNA Binding Domain. The protein was expressed with a 21 amino acid C-terminal deletion to remove transmembrane domain. Expression of NS5BΔ21/Gal4 DBD fusion protein was under control of SV40 early promoter. 3D-Sensor peptide was cloned in frame with VP16 activation domain. Expression of 3D-Sensor/VP16 AD fusion protein was under control of CMV promoter. Expression of the firefly luciferase reporter gene was inducible by the [Target protein/conformation sensitive peptide/VP16AD] complex.
It is a single-target, cell based assay. Briefly, expression of a reporter gene depends on the interaction of a short peptide, thereafter named 3D-Sensor, and native conformation of the target protein. Whenever the conformation of the target protein is modified, interaction between 3D-sensor and target protein is disrupted and reporter gene is not expressed anymore. Conformation modifiers are identified by loss of expression of reporter gene. NS5B 3D-Screen platform was generated in Huh-7 cell lines by transient transfection of three expression vectors encoding respectively
(i) HCV NS5BΔ21/Gal4-DBD fusion protein
(ii) the 3D-sensor peptide I4/VP16 fusion protein
(iii) the firefly luciferase reporter gene
Huh-7 cells were dissociated the day before transfection and seeded in T175 flasks at a density of 10^7 cells in 30 ml culture medium. Equimolar ratios of vectors were transfected in cell according to optimized jetPEI transfection protocol (PolyPlus Transfection, Illkirch, France) and 10 μg total DNA/10^6 cells. Transfection was performed for 2 hours at 37° C. and 5% CO2 in a humidified atmosphere. After two hours cells were dissociated and seeded in 96 wells plates at a density of 25,000 cells per well and 90 μl culture medium. 10 μl of compounds to be tested were added 2 hours after seeding. Final concentration of DMSO was 1%. Cells were incubated in the presence of compounds for 24 hours after which expression of firefly luciferase reporter gene was quantified. Briefly, culture medium was removed and cells were lysed by addition of 100 μl of lysis buffer containing 125 mM Tris Phosphate ph 7.8, 10 mM EDTA, 5 mM DTT, 50% glycerol and 5% Triton. Plates were vortexed 10 min at 1300 rpm. Cell lysat was transferred in OpaqueWhite Assay 96 well Flat Bottom plates. 100 μl of luciferin solution 1× were added to each well. Luciferin solution contained 40 mM Tris Phosphate ph 7.8, 0.2 mM EDTA, 67 mM DTT, 2.14 mM MgCl2, 5.4 mM MgSO4, 4.7×10^−4 M luciferin, 5.3×10^−4 M ATP and 2.7×10^−4 M Acetyl co enzyme A. Luminescence was immediately measured with Berthold Microlumat Plus LB 96V luminometer with an integration of 0.5 sec. Inhibition was calculated using the formula: % inhibition=(1−(read/average max))*100. Average max=signal in absence of compound
On the technique in general: In a reporter assay the amount or activity of a reporter protein is the signal.

The mark [1] stands for this setting: Table 1, 3D-SCREEN assay results, Huh-7 cells, 24 hours with compound, firefly luciferase reporter.
[2] abbreviates: Table 2, titled Replicon assay results.

pEC50: −log10 of the molar value. Bounds are passed on as bounds.

The molecule `COCCON=C(C1=C(O)C(=O)N(c2ccc(C)nn2)C1c1ccc(OC(F)(F)F)cc1)c1ccc(C(C)C)cc1` (mixture of isomers) [Example 84, 3-Hydroxy-4-{(4-isopropyl-phenyl)-[2-methoxy-ethoxyimino]-methyl}-1-(6-methyl-pyridazin-3-yl)-5-(4-trifluoromethoxy-phenyl)-1,5-dihydro-pyrrol-2-one] came in with a melting point of 115 to 118 °C. For the same molecule, the pEC50 on HCV NS5B genotype 1b (setting [1]) is 5.52.

Molecule `Cc1ccc(C(=O)C2=C(O)C(=O)N(c3ccc(C)nn3)C2c2ccc(C(F)(F)F)cc2)cc1` (stereo not drawn) [Example 18, 3-hydroxy-4-(4-methyl-benzoyl)-1-(6-methyl-pyridazin-3-yl)-5-(4-trifluoromethyl-phenyl)-1,5-dihydro-pyrrol-2-one] displayed a melting point of 278 °C. Moreover, the negative-log EC50 (pEC50) at HCV NS5B genotype 1b (setting [1]) was 6.00.

Consider `COc1ccc(C(=O)C2=C(O)C(=O)N(c3ccc(C)nn3)C2c2ccc(OC(F)(F)F)cc2)cc1` (stereo not drawn) [Example 23, 3-hydroxy-4-(4-methoxy-benzoyl)-1-(6-methyl-pyridazin-3-yl)-5-(4-trifluoromethoxy-phenyl)-1,5-dihydro-pyrrol-2-one], for which the melting point worked out at 265 °C. For the same molecule, the pEC50 at HCV NS5B genotype 1b (setting [1]) is 6.00.

In the case of `COc1ccc(C2C(C(=O)c3ccc(OC(F)(F)F)cc3)=C(O)C(=O)N2c2ccc(C)nn2)cc1` (stereo not drawn) [Example 24, 3-hydroxy-5-(4-methoxy-phenyl)-1-(6-methyl-pyridazin-3-yl)-4-(4-trifluoromethoxy-benzoyl)-1,5-dihydro-pyrrol-2-one], the melting point was 279 °C. The negative-log EC50 (pEC50) at HCV NS5B genotype 1b (setting [1]) is 5.52.

Molecule `Cc1ccc(C(=O)C2=C(O)C(=O)N(c3ccc(C)nn3)C2c2ccc(OC(C)C)cc2)cc1` (stereo not drawn) [Example 33, 3-hydroxy-5-(4-isopropoxy-phenyl)-4-(4-methyl-benzoyl)-1-(6-methyl-pyridazin-3-yl)-1,5-dihydro-pyrrol-2-one] displayed a melting point of 268 to 272 °C. Further, on HCV NS5B genotype 1b (setting [1]), the negative-log EC50 (pEC50) was 5.70.

In turn, `Cc1ccc(C(=O)C2=C(O)C(=O)N(c3ccc(N(C)C)nn3)C2c2ccc(C(C)C)cc2)cc1` (stereo not drawn) [Example 37, 1-(6-dimethylamino-pyridazin-3-yl)-3-hydroxy-5-(4-isopropyl-phenyl)-4-(4-methyl-benzoyl)-1,5-dihydro-pyrrol-2-one] displayed a melting point of 281 °C. The pEC50 on HCV NS5B genotype 1b (setting [1]) is 5.05.

In turn, `Cc1ccc(C(=O)C2=C(O)C(=O)N(c3ccc(C)nn3)C2c2cccc(OC(C)C)c2)cc1` (stereo not drawn) [Example 38, 3-hydroxy-5-(3-isopropoxy-phenyl)-4-(4-methyl-benzoyl)-1-(6-methyl-pyridazin-3-yl)-1,5-dihydro-pyrrol-2-one] had a melting point of 243 to 245 °C. In addition, at HCV NS5B genotype 1b (setting [1]), the pEC50 was 5.00.

In turn, `Cc1ccc(C(=O)C2=C(O)C(=O)N(c3ccc(C)cn3)C2c2ccc(C(C)C)cc2)cc1` (stereo not drawn) [Example 41, 3-hydroxy-5-(4-isopropyl-phenyl)-4-(4-methyl-benzoyl)-1-(5-methyl-pyridin-2-yl)-1,5-dihydro-pyrrol-2-one] displayed a melting point of 259 to 261 °C. Further, at HCV NS5B genotype 1b (setting [1]), the pEC50 is 5.15.

Regarding `Cc1ccc(N2C(=O)C(O)=C(C(=O)c3ccc(C(C)C)cc3)C2c2ccc(N3CCOCC3)cc2)nn1` (stereo not drawn) [Example 58, 3-hydroxy-4-(4-isopropyl-benzoyl)-1-(6-methyl-pyridazin-3-yl)-5-(4-morpholin-4-yl-phenyl)-1,5-dihydro-pyrrol-2-one], the melting point is 293 to 294 °C. For the same molecule, the negative logarithm of the EC50 (pEC50) on HCV NS5B genotype 1b (setting [1]) was 5.30.

In turn, `Cc1ccc(N2C(=O)C(O)=C(C(=O)c3ccc(C(C)C)cc3)C2c2ccc(C(C)C)cc2)cn1.Cl` (stereo not drawn) [Example 66, 5-[3-hydroxy-4-(4-isopropyl-benzoyl)-5-(4-isopropyl-phenyl)-2-oxo-2,5-dihydro-pyrrol-1-yl]-2-methyl-pyridinium; chloride] yielded a melting point of 165 °C. Further, the pEC50 at HCV NS5B genotype 1b (setting [1]) is 5.70.

For `COCCOc1ccc(C(=O)C2=C(O)C(=O)N(c3ccc(C)nn3)C2c2ccc(OC(F)(F)F)cc2)cc1` (stereo not drawn) [Example 85, 3-Hydroxy-4-[4-(2-methoxy-ethoxy)-benzoyl]-1-(6-methyl-pyridazin-3-yl)-5-(4-trifluoromethoxy-phenyl)-1,5-dihydro-pyrrol-2-one], the melting point is 216 to 219 °C. The pEC50 on HCV NS5B genotype 1b (setting [2]) was > 5.00.

The molecule `Cc1ccc(N2C(=O)C(O)=C(C(=O)c3ccc(C(C)C)cc3)C2c2ccc(Cl)cc2)nn1` (stereo not drawn) [Example 87, 5-(4-chloro-phenyl)-3-hydroxy-4-(4-isopropyl-benzoyl)-1-(6-methyl-pyridazin-3-yl)-1,5-dihydro-pyrrol-2-one] yielded a melting point of 258 to 260 °C. In addition, the pEC50 on HCV NS5B genotype 1b (setting [2]) is > 5.00.

The molecule `CCOc1ccc(C(=O)C2=C(O)C(=O)N(c3ccc(C)nn3)C2c2ccc(OC(F)(F)F)cc2)cc1` (stereo not drawn) [Example 101, 4-(4-ethoxy-benzoyl)-3-hydroxy-1-(6-methyl-pyridazin-3-yl)-5-(4-trifluoromethoxy-phenyl)-1,5-dihydro-pyrrol-2-one] gave a melting point of 255 to 257 °C. Further, the pEC50 at HCV NS5B genotype 1b (setting [2]) is > 5.00.

For the molecule `Cc1ccc(N2C(=O)C(O)=C(C(=O)c3ccc(C(C)C)cc3)C2c2ccc(OC(C)C)cn2)nn1` (stereo not drawn) [Example 121, 3-hydroxy-5-(5-isopropoxy-pyridin-2-yl)-4-(4-isopropyl-benzoyl)-1-(6-methyl-pyridazin-3-yl)-1,5-dihydro-pyrrol-2-one], the melting point lay in the range of 243 to 245 °C. Also, the negative-log EC50 (pEC50) at HCV NS5B genotype 1b (setting [2]) is > 5.00.

As to `Cc1ccc(N2C(=O)C(O)=C(C(=O)c3ccc(C(F)(F)F)nc3)C2c2ccc(OC(F)(F)F)cc2)nn1` (stereo not drawn) [Example 126, 3-hydroxy-1-(6-methyl-pyridazin-3-yl)-5-(4-trifluoromethoxy-phenyl)-4-(6-trifluoromethyl-pyridine-3-carbonyl)-1,5-dihydro-pyrrol-2-one], the melting point worked out at 172 °C. Further, the negative-log EC50 (pEC50) at HCV NS5B genotype 1b (setting [2]) is > 5.00.

Molecule `Cc1ccc(N2C(=O)C(O)=C(C(=O)c3ccc(C(C)C)cc3)C2c2ccc(N(C)C)cc2)nn1` (stereo not drawn) [Example 135, 5-(4-dimethylamino-phenyl)-3-hydroxy-4-(4-isopropyl-benzoyl)-1-(6-methyl-pyridazin-3-yl)-1,5-dihydro-pyrrol-2-one] showed a melting point of 283 to 286 °C. The negative logarithm of the EC50 (pEC50) at HCV NS5B genotype 1b (setting [2]) was > 5.00.

For the molecule `Cc1ccc(N2C(=O)C(O)=C(C(=O)c3ccc(C(C)C)cc3)C2c2ccc(Cn3nccn3)cc2)nn1` (stereo not drawn) [Example 147, 3-hydroxy-4-(4-isopropyl-benzoyl)-1-(6-methyl-pyridazin-3-yl)-5-(4-[1,2,3]triazol-2-ylmethyl-phenyl)-1,5-dihydro-pyrrol-2-one], the melting point was determined as 285 °C. In addition, the pEC50 on HCV NS5B genotype 1b (setting [2]) was > 5.00.

As to `Cc1ccc(N2C(=O)C(O)=C(C(=O)c3ccc(C(C)C)cc3)[C@@H]2c2ccc(C(F)(F)F)cc2)nn1` [Example 190, 3-hydroxy-4-(4-isopropyl-benzoyl)-1-(6-methyl-pyridazin-3-yl)-5(S)-(4-trifluoromethyl-phenyl)-1,5-dihydro-pyrrol-2-one], the melting point came out at 252 °C. At HCV NS5B genotype 1b (setting [2]), the pEC50 was > 5.00.

The values above are taken from patent publication US20120128630A1, “1-(6 MEMBERS AZO-HETEROCYCLIC)-PYRROLIN-2-ONE COMPOUNDS AS INHIBITORS OF HEPATITIS C NS5B POLYMERASE, THE PHARAMACEUTICAL COMPOSITION THEREOF AND THEIR THERAPEUTIC USE” (priority 2009, published 2012).
